“Also recorded” adds a separate entry of the source.
Columns and labels:
[1] = tested on: Tyrosinase; assay: Measurement of inhibition action against tyrosinase; type: biochemical
Protocol: Tyrosinase was purchased from Sigma Company. The enzyme was dissolved in […]. Sodium phosphate buffer (0.1 M, pH 6.0), a substrate of enzyme and adjusted 1.6 mg/ml of concentration to obtain an enzyme solution. Sample was dissolved in sodium phosphate buffer and the undissolved residue was filtered out. 0.7 ml of the buffer, 0.2 ml of sample and 0.1 ml (15.7 unit/ml) of the enzyme solution were mixed and after 60 seconds, absorbance was measured at 475 nm by spectrophotometer.
By the following equation, inhibition ratio(%) of tyrosinase was calculated.
Inhibition ratio(%) of tyrosinase=[1−(S−B)/C]×100
wherein, • S: Test tube having enzyme and sample, • B: Test tube having sample, • C: Test tube having enzyme.

[2] = Water solubility; type: physicochemical
[3] = tested on: liver spots of women; assay: Whitening effect of preparation composed of ranunculin, deoxypodophyllotoxin and SB365 on clinical trial; type: in vivo, human; conditions: concluded from compositions with and without SB365
Protocol: Pharmaceutical composition: 10 mg of ranunculin, 50 mg of deoxypodophyllotoxin, and 15 mg of SB365 were mixed well together with the base (19 g) to obtain pharmaceutical composition and the composition was rubbed on the area of liver spots three times a day till the time of curing.
A composition from which SB365 which was not effective on tyrosinase was deleted was used. The composition were administered to five women (F, G, H, I, K) having liver spots.

Question: For `COc1cc([C@@H]2c3cc4c(cc3C[C@H]3COC(=O)[C@@H]32)OCO4)cc(OC)c1OC` [Deoxypodophyllotoxin], which inhibition against tyrosinase ([1]; at 0.03 μg/ml) is on record?
Answer: 38%

Question: What about the “inhibition of activity of tyrosinase” value ([1]; at 0.03/g/ml) of the same molecule?
Answer: 38%

Question: And the water solubility [2]?
Answer: very low and low

Question: With `CC1OC(OC2C(O[C@H]3CC[C@@]4(C)C(CC[C@]5(C)C4CC=C4C6CC(C)(C)CC[C@]6(C(=O)O)CC[C@]45C)[C@]3(C)CO)OCC(OC3OC(CO)C(O)C(O)C3O)C2O)C(O)C(O)C1O` (stereo partly drawn) [SB365, 3-O-α-L-ramnopyranosyl(1→2)-[β-D-glucopyranosyl(1→4)]-α-L-arabinopyranoside] as the molecule, how does the “effect against tyrosinase (in words)” value [1] read?
Answer: not effective; also recorded: did not inhibit; also recorded: no effect

Question: What about the “whitening effect in clinical trials” value [3] of the same molecule?
Answer: have whitening effect; also recorded: excellent whitening effect
